Measured values published in US10039283B2, “Substituted pyrazolyl-nicotin(thio)amide derivatives and their use as fungicides” (BAYER CROPSCIENCE AKTIENGESELLSCHAFT, priority 2014, dated 2018).

Assay: Log P by HPLC on reversed phase, method [a], acidic range (0.1% formic acid)
Assay type: physicochemical
Conditions: LC-UV, 0.1% formic acid in water and acetonitrile

| LogP | SMILES |
| --- | --- |
| 1.63^[a] | CCC(C)n1ncc(NC(=O)c2cccnc2C(F)F)c1C (centres unmarked) [Example 126] |
| 2.70^[a] | O=C(Nc1cnn(-c2ccccc2C(F)(F)F)c1-c1ccccc1)c1cccnc1C(F)F [Example 129] |
| 2.80^[a] | O=C(Nc1cnn(-c2ccccc2C(F)(F)F)c1-c1ccc(F)cc1)c1cccnc1C(F)F [Example 130] |
| 2.80^[a] | O=C(Nc1cnn(-c2ccccc2C(F)(F)F)c1-c1cccc(F)c1)c1cccnc1C(F)F [Example 131] |
| 2.59^[a] | Cc1cnc(C(F)F)c(C(=O)Nc2cnn(-c3ccc(Br)cc3)c2C)c1 [Example 133] |
| 2.34^[a] | Cc1c(NC(=O)c2cccnc2C(F)F)cnn1-c1ccc(Br)cc1 [Example 134] |
| 2.07^[a] | O=C(Nc1cnn(-c2ccccc2)c1Br)c1cccnc1C(F)F [Example 135] |
| 3.76^[a] | COc1cnc(C(F)F)c(C(=O)Nc2cnn(-c3ccc(Cl)c(Cl)c3)c2C(F)(F)F)c1 [Example 136] |
| 3.25^[a] | Cc1cnc(C(F)F)c(C(=O)Nc2cnn(-c3cccc(Cl)c3)c2C(F)(F)F)c1 [Example 138] |
| 3.39^[a] | Cc1cnc(C(F)F)c(C(=O)Nc2cnn(-c3cccc(C(F)(F)F)c3)c2C(F)(F)F)c1 [Example 139] |
| 2.77^[a] | Cc1cnc(C(F)F)c(C(=O)Nc2cnn(-c3ccccc3F)c2C(F)(F)F)c1 [Example 140] |
| 3.80^[a] | O=C(Nc1cnn(-c2cccc(Cl)c2Cl)c1C(F)(F)F)c1ccc(Br)nc1C(F)F [Example 144] |
| 3.73^[a] | O=C(Nc1cnn(-c2ccc(Cl)cc2)c1C(F)(F)F)c1ccc(Br)nc1C(F)F [Example 145] |
| 2.51^[a] | O=C(Nc1cnn(-c2ccccc2F)c1-c1cccc(F)c1)c1cccnc1C(F)F [Example 146] |
| 2.96^[a] | Cc1cccc(-n2ncc(NC(=O)c3cc(C)cnc3C(F)F)c2C(F)(F)F)c1 [Example 154] |
| 3.33^[a] | Cc1cccc(-n2ncc(NC(=O)c3ccc(Cl)nc3C(F)F)c2C(F)(F)F)c1 [Example 156] |

Second part, the compound before the results:

| SMILES | LogP |
| --- | --- |
| CCc1c(NC(=O)c2cccnc2C(F)F)cnn1C(CC)CC [Example 127] | 2.20^[a] |
| O=C(Nc1cnn(-c2ccc(F)cc2)c1-c1cccc(Cl)c1)c1cccnc1C(F)F [Example 128] | 2.92^[a] |
| O=C(Nc1cnn(-c2ccccc2C(F)(F)F)c1-c1ccc(Cl)cc1)c1cccnc1C(F)F [Example 132] | 3.04^[a] |
| O=C(Nc1cnn(-c2ccccc2)c1Cl)c1cccnc1C(F)F [Example 137] | 2.07^[a] |
| Cc1cnc(C(F)F)c(C(=O)Nc2cnn(-c3ccc(F)cc3)c2C(F)(F)F)c1 [Example 141] | 2.86^[a] |
| Cc1cnc(C(F)F)c(C(=O)Nc2cnn(-c3ccc(C(C)C)cc3)c2C(F)(F)F)c1 [Example 142] | 3.78^[a] |
| N#Cc1c(NC(=O)c2cccnc2C(F)F)cnn1-c1ccccc1 [Example 143] | 2.28^[a] |
| O=C(Nc1cnn(-c2ccccc2F)c1-c1ccc(F)cc1)c1cccnc1C(F)F [Example 147] | 2.51^[a] |
| O=C(Nc1cnn(-c2ccccc2F)c1-c1ccccc1)c1cccnc1C(F)F [Example 148] | 2.39^[a] |
| O=C(Nc1cnn(-c2ccccc2F)c1-c1ccc(Cl)cc1)c1cccnc1C(F)F [Example 149] | 2.73^[a] |
| O=C(Nc1cnn(-c2ccc(Br)cc2)c1Br)c1cccnc1C(F)F [Example 150] | 2.67^[a] |
| O=C(Nc1cnn(-c2ccc(Br)cc2)c1Cl)c1cccnc1C(F)F [Example 151] | 3.47^[a] |
| COc1c(NC(=O)c2cccnc2C(F)F)cnn1-c1ccc(Br)cc1 [Example 152] | 2.40^[a] |
| O=C(Nc1cnn(-c2cccc(Cl)c2)c1Br)c1cccnc1C(F)F [Example 153] | 2.54^[a] |
| O=C(Nc1cnn(-c2cccc(Cl)c2)c1C(F)(F)F)c1ccc(Cl)nc1C(F)F [Example 155] | 3.62^[a] |
| Cc1ccc(-n2ncc(NC(=O)c3ccc(Cl)nc3C(F)F)c2C(F)(F)F)cc1 [Example 157] | 3.48^[a] |
